Measured values: patent US6492417B1, “11-deoxy-16-fluoro-PGF2α analogs as FP receptor antagonists” (Alcon Manufacturing, Ltd., priority 1997, dated 2002)
Values belong to the compound of their own block, whether it stands above or below them.

Experiments:
FP receptor [1] = molecular target: T1, FP receptor (Rattus norvegicus, UniProt P43118); test: Schild analysis: antagonism of fluprostenol-induced [3H]IPs production in A7r5 cells (fixed antagonist, varied agonist); format: cell-based; conditions: for Kb (potency as antagonist of the FP receptor) / Kb: Schild analysis; for Kb: read-out: Kb (potency as antagonist of the FP receptor)
T1 construct: Two cell lines containing the FP receptor; host or cells: A7r5 rat thoracic aorta smooth muscle cells
T1 sequence (P43118 whole entry): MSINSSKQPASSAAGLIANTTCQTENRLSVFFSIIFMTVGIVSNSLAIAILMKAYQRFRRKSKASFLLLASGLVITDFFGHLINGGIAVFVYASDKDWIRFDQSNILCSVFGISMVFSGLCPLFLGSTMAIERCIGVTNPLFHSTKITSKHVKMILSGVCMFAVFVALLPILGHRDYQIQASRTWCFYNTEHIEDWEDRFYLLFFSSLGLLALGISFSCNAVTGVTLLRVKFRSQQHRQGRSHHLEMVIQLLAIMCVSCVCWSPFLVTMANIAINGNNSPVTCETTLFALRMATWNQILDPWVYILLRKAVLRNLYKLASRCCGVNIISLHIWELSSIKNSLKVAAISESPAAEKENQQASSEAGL
Description: (§1) Confluent monolayer cultures of cells (in a standard 24-well tissue culture plate) expressing the FP receptor are exposed to [^3H]-myo-inositol (1.5 μCi in a volume of 0.5 ml DMEM culture medium supplemented with 2 mM L-glutamine and 10 μg/ml gentamicin sulfate) in the absence of serum, which causes net incorporation of the radioisotope into the phosphotidylinositol membrane lipids. After 24-32 hrs, the medium with the radioisotope is removed and the cells are rinsed once with DMEM/F-12 medium containing 10 mM LiCl (assay medium). Then 0.5 ml of assay medium is added to each well of cells, followed by addition of varying concentrations of an FP receptor agonist (or other test compound). Cells are exposed to the test agent for 30-120 min in a humidified incubator (95% air/5% CO2), maintained at 37° C. Then the assay medium is removed and 1 ml of 0.1 M formic acid is added to the cell monolayer to inactivate the phospholipase C and to the radiolabelled products into the assay medium. The presence of LiCl during the agonist stimulation period inhibits phosphatases and permits the accumulation of radiolabelled inositol phosphates (IPs) which is measured by ion exchange chromatography.
The agonist-dependent production of IPs, which reflects the degree of receptor activation, is quantitatively measured for each well of cells in the 24-well plate by separating the negatively charged radiolabelled IPs from other minor radiolabelled species and free [^3H]-myo-inositol by anion exchange chromatography. This is accomplished by adding 0.9 ml of the cell lysate obtained as described above to a column packed with 1 ml of AG 1-X8 anion exchange resin in the formate form. The elution and separation of the radiolabelled IPs from the column consists of sequential additions to the column of: 1) 10 ml of water; 2) 8 ml of 50 mM ammonium formate; and 3) 4 ml of 1.2 M ammonium formate solution containing 0.1 M formic acid. The first two washes are discarded, and the third is collected in a scintillation vial, to which is added 15 ml of a water-accepting scintillation fluid. These samples, i.e., the radiolabelled IPs formed by the cells in response to stimulation by an FP prostaglandin receptor agonist or other test agent, is then measured by scintillation spectrometry on a beta-counter.
The dependence of the level of the [^3H]IPs production on agonist concentration is analyzed by standard pharmacological methods to determine the potency (EC50 value) and efficacy (maximum response; Emax) of the FP receptor agonist relative to a standard FP receptor agonist such as fluprostenol. […] The agonist stimulation is then continued for the standard time (30-120 min), after which the procedure for quenching the reaction, separating the [^3H]IPs, and anion exchange chromatography is identical to the procedure described above. A compound is considered to be an antagonist in this protocol if it inhibits the agonist-stimulated [^3H]IPs production relative to the production measured in the control experiment (performed in parallel), in which the solvent is substituted for the antagonist.
Two different antagonist protocols are employed: 1) the antagonist concentration is varied while holding the agonist concentration fixed at a concentration approximately 10 times the agonist EC50 value and 2) the antagonist concentration is fixed in a given experiment, with the agonist concentration varied, and several such experiments, each with a different, fixed antagonist concentration, are performed. […] Overall, the Ki and Kb values are synonymous and represent the antagonist potency of the antagonist at equilibrium.

FP receptor [2] = molecular target: T1, FP receptor; test: Agonist stimulation of [3H]IPs production in A7r5 cells; format: cell-based
Description: as §1, with “Then the assay medium is removed and 1 ml of 0.1 M formic acid is added to the cell monolayer to inactivate the phospholipase C and to the radiolabelled products into the assay medium.” left out
(§2) The agonist-dependent production of IPs, which reflects the degree of receptor activation, is quantitatively measured for each well of cells in the 24-well plate by separating the negatively charged radiolabelled IPs from other minor radiolabelled species and free [^3H]-myo-inositol by anion exchange chromatography. […]

FP receptor [3] = test: Schild analysis: antagonism of agonist-stimulated [3H]IPs production, data from 3T3 and A7r5 cells; format: cell-based, mouse and rat; conditions: n=9 experiments using 3T3 and A7r5 cells; read-out: Kb (antagonist potency by Schild analysis)
Description: as §1, with “Then the assay medium is removed and 1 ml of 0.1 M formic acid is added to the cell monolayer to inactivate the phospholipase C and to the radiolabelled products into the assay medium.” left out
as §2

FP receptor [4] = molecular target: T1, FP receptor; test: Concentration-dependent inhibition of fluprostenol-stimulated [3H]IPs production in A7r5 cells (varied antagonist, fixed agonist); format: cell-based; conditions: fluprostenol fixed at approximately 10 times its EC50, n=3, read-out: Ki (antagonist potency by method of FIG. 2)
Description: as §1, with “Then the assay medium is removed and 1 ml of 0.1 M formic acid is added to the cell monolayer to inactivate the phospholipase C and to the radiolabelled products into the assay medium.” left out
as §2

[5] = molecular target: FP prostaglandin receptor (Homo sapiens, UniProt P43088); test: Selectivity for FP prostaglandin receptor compared to other classes of prostaglandin receptors
FP prostaglandin receptor, sequence (P43088 whole entry): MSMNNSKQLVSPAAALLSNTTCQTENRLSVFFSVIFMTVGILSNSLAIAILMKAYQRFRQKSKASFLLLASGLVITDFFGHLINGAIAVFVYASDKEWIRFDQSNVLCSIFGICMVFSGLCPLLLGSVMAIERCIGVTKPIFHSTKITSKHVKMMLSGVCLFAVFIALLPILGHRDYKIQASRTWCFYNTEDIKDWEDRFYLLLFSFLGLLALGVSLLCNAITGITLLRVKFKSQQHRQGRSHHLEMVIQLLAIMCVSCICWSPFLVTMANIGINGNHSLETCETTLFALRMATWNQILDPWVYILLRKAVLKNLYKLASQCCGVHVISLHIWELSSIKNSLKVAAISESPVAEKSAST

SMILES: CCCCC[C@H](O)/C=C/[C@@H]1[C@@H](C/C=C\CCCCN(C)C)[C@@H](O)C[C@H]1O [PGF2α dimethyl amine]
Kb (potency as antagonist of the FP receptor) (FP receptor [1]; A7r5 cells): Inactive

SMILES: CCCCC[C@H](O)/C=C/[C@@H]1[C@@H](C/C=C\CCCC(=O)N(C)C)[C@@H](O)C[C@H]1O [PGF2α dimethyl amide]
Kb (potency as antagonist of the FP receptor) (FP receptor [1]; A7r5 cells): Inactive

Kb (FP receptor [1]; A7r5 cells): 5.2 µM
SMILES: O=C(CCc1ccc(O)cc1)c1c(O)cc(O)cc1O [Phloretin]

Kb (FP receptor [1]; A7r5 cells): 160 µM
SMILES: COc1ccc(Cl)cc1C(=O)NCCc1ccc(S(=O)(=O)NC(=O)NC2CCCCC2)cc1 [Glibenclamide]

Kb (potency as antagonist of the FP receptor) (FP receptor [1]; A7r5 cells): Inactive
Kb (potency as antagonist of the FP receptor) (FP receptor [1]; A7r5 cells, listed as tolbutamide): inactive
SMILES: CCCCNC(=O)NS(=O)(=O)c1ccc(C)cc1 [Tolbutamide]

Agonist classification (maximum effect relative to fluprostenol) (FP receptor [2]): full agonist
SMILES: O=C(O)CCC/C=C\C[C@@H]1[C@@H](/C=C/[C@@H](O)COc2cccc(C(F)(F)F)c2)[C@H](O)C[C@@H]1O (racemic) [fluprostenol]

Agonist classification (maximum effect relative to fluprostenol) (FP receptor [2]): partial agonist
Kb (FP receptor [1]; A7r5 cells): 0.132 µM
Type of antagonism (shift of fluprostenol dose-response curves) (FP receptor [1]; A7r5 cells, maximal effects of fluprostenol unaltered, potency reduced): competitive antagonist
Fold higher potency as FP receptor antagonist than phloretin (FP receptor [1]; from Table 1 Kb values): greater than 39 fold
Ki (FP receptor [4]): 324 ± 49 nM
Selectivity for the FP prostaglandin receptor compared to other classes of prostaglandin receptors [5]: relatively good selectivity
SMILES: CCCCC(F)[C@H](O)/C=C/[C@H]1CC[C@H](O)[C@@H]1C/C=C\CCCC(=O)O (some centres unmarked) [Compound II]
Kb (FP receptor [3]): 132 ± 22 nM
